“And” between values parts separate entries of the source, which are not always exact repeats. Equal entries are not always repeated.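 Dose response: 5 concentrations. Exposure: 48 h. Format: 96-well plates. Endpoint: linear interpolation; highest concentration if not reached. Abbreviation: GI50, concentration required for 50% inhibition of growth. TGI is the concentration that stops growth completely.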
Legend:
Assay in all cases: DTP human tumour cell line panel, 48 h
DU-145 prostate = system: DU-145 prostate
HCT-15 colon = system: HCT-15 colon
HT29 colon = system: HT29 colon
MCF7 breast = system: MCF7 breast
OVCAR-4 ovarian = system: OVCAR-4 ovarian
OVCAR-5 ovarian = system: OVCAR-5 ovarian
SK-MEL-2 melanoma = system: SK-MEL-2 melanoma
SN12C renal = system: SN12C renal
U251 CNS = system: U251 CNS
UO-31 renal = system: UO-31 renal

SMILES | TGI (DU-145 prostate) [µM] | TGI (HCT-15 colon) [µM] | TGI (HT29 colon) [µM] | TGI (MCF7 breast) [µM] | TGI (OVCAR-4 ovarian) [µM] | TGI (OVCAR-5 ovarian) [µM] | TGI (SK-MEL-2 melanoma) | TGI (SN12C renal) [µM] | TGI (U251 CNS) | TGI (UO-31 renal) | GI50 (DU-145 prostate) | GI50 (HCT-15 colon) | GI50 (HT29 colon) | GI50 (MCF7 breast) | GI50 (OVCAR-4 ovarian) | GI50 (OVCAR-5 ovarian) | GI50 (SK-MEL-2 melanoma) | GI50 (SN12C renal) | GI50 (U251 CNS) | GI50 (UO-31 renal)
O=c1ccs[nH]1 | > 91.3 | 33.8 | 34.4 | 38.7 | 32.5 | 36.3 | 61.3 µM | 28.3 | 21.4 µM | 23 µM | – | – | – | – | – | – | – | – | – | –
C#CC1(OC(C)=O)CCC2C3CC=C4C=C(OC(C)=O)CCC4(C)C3CCC21C (configuration not stated) | 97.4 | 62.5 | 40 | 49.9 | 72.2 | > 100 | 41.1 µM | 45.1 | 38.9 µM | 54.4 µM | – | – | – | – | – | – | – | – | – | –
COc1cccc(/C=C/[N+](=O)[O-])c1 | 5.64 | 6.18 | 4.48 | 3.93 | 36.9 | 27.6 | 35.9 µM | 37.2 | 14.8 µM | 3.4 µM | 2.26 µM | 2.17 µM | 1.92 µM | 1.2 µM | 15.5 µM | 12.3 µM | 17.4 µM | 15.2 µM | 4.04 µM | 1.68 µM
COc1ccc(/C(COc2ccc3c(=O)c(-c4ccccc4)coc3c2)=N\O)cc1 | 33.4 | 12.9 | > 44.5 | > 50.9 | > 100 | > 96.5 | 23.7 µM | 16.4 | > 39.6 µM | 27.7 µM | 4.09 µM | 0.349 µM | 2.89 µM | 3.16 µM | 16.1 µM | – | 3.5 µM | 1.65 µM | 1.1 µM | 9.02 µM
Cc1ccc2c(-c3ccnc(Nc4ccccc4)n3)c(-c3ccc(F)cc3)nn2n1 | > 25 | > 25 | > 19.2 | > 25 | > 25 | > 25 | 17.4 µM | > 25 | > 25 µM | > 24.1 µM | 7.59 µM | 5.58 µM | 2.34 µM | 7.44 µM | 11.1 µM | 8.25 µM | 7.67 µM | 4.85 µM | 9.8 µM | 1.01 µM
Cc1ccc(Cc2cnc(NC(=O)/C=C/c3cccc(C)c3)s2)cc1 | > 66.3 | > 96 | 5.85 | > 100 | 4.71 | > 70.8 | > 100 µM | > 56 | 4.97 µM | 9.54 µM | 0.395 µM | 0.049 µM | 0.135 µM | 0.103 µM | 0.842 µM | 0.492 µM | 1.68 µM | 0.393 µM | 0.144 µM | 0.395 µM
CC(=C/C=C/C=C(C)\C=C\C=C(\C)C(=O)O)/C=C/C=C(/C)C(=O)O | > 100 | > 100 | > 100 | > 100 | > 100 | > 100 | > 100 µM | > 100 | > 100 µM | > 100 µM | – | – | – | – | – | – | – | – | – | –
COc1cc2ncn(-c3cc(O[C@@H](C)c4ccccc4Cl)c(C(N)=O)s3)c2cc1OC | > 25 | > 25 | > 25 | > 25 | > 25 | > 25 | > 25 µM | > 25 | > 25 µM | > 25 µM | 0.727 µM | 0.743 µM | 0.107 µM | 0.111 µM | 3.53 µM | 1.29 µM | 1.58 µM | 3.05 µM | 1.84 µM | 5.3 µM
O=C1c2ccccc2-c2oc(=O)c3ccccc3c21 | > 100 | > 100 | > 100 | > 100 | > 100 | > 100 | > 100 µM | > 100 | > 100 µM | > 100 µM | – | – | – | – | – | – | – | – | – | –
C=C(CN1CCN(c2cccc(C(F)(F)F)n2)CC1)c1ccc(C(=O)Nc2ccccc2N)cc1 | > 100 | > 100 | – | > 100 | > 100 | > 100 | 41.5 µM and > 58 µM | > 100 | 34.4 µM and 12.8 µM | 72.2 µM and > 76.6 µM | 1.46 µM and 0.634 µM | 0.918 µM and 0.404 µM | 0.565 µM and 0.341 µM | 0.349 µM and 0.293 µM | 8.37 µM and 1.41 µM | 0.712 µM and 3.63 µM | 5.65 µM and 0.851 µM | 3.79 µM and 0.797 µM | 1.16 µM and 0.429 µM | 2.76 µM and 0.465 µM
COc1cc2c(cc1OC)-c1ccc3cc4c(cc3c1N(CCCn1ccnc1)C2)OCO4 | 34.5 | > 100 | 30.7 | 74.1 | 31.9 | 69.9 | 8.73 µM | 16.9 | 3.97 µM | 60.5 µM | 3.21 µM | 58.3 µM | 3.22 µM | 0.364 µM | 4.81 µM | 16.4 µM | 3.02 µM | 0.382 µM | 1.02 µM | 16.7 µM
O=C(O)CCCSc1ccccc1 | > 100 | > 100 | > 100 | > 100 | > 100 | > 100 | > 100 µM | > 100 | > 100 µM | > 100 µM | – | – | – | – | – | – | – | – | – | –
C/C(=N\Nc1cc(C)c2ccccc2n1)c1ccccn1 | 12.4 | 1.81 | 1.8 | 1.16 | 2.22 | 5.26 | 11.1 µM | 7.57 | 1.16 µM | 0.903 µM | 0.107 µM | < 0.0493 µM | 0.0408 µM | 0.0894 µM | – | 0.0706 µM | 0.357 µM | 0.0762 µM | 0.0368 µM | < 0.0377 µM
C=C1C(=O)O[C@H]2[C@H]1CC/C(COC(=O)C(=O)c1cn(C)c3ccc(Cl)cc13)=C\CC[C@@]1(C)O[C@@H]21 | 3.63 | 0.5 | 1.19 | 3.19 | 12.4 | 5.82 | 3.61 µM | 4.71 | 3.38 µM | 2.17 µM | 1.69 µM | 0.209 µM | 0.339 µM | 0.391 µM | 2.26 µM | 1.91 µM | 1.39 µM | 1.39 µM | 1.79 µM | 0.817 µM
CS(=O)(=O)CCNCc1ccc(-c2ccc3ncnc(Nc4ccc(OCc5ccccc5)c(Br)c4)c3c2)o1 | > 25 | 14.7 | 10.1 | 24.6 | > 25 | > 25 | 13.1 µM | > 25 | > 23 µM | 11.5 µM | 12.6 µM | 4.51 µM | 4.72 µM | 7.07 µM | 15.5 µM | 7.05 µM | 6.5 µM | 11.9 µM | 7.12 µM | 3.64 µM

— PubChem BioAssay (NCI)
